Earlier results as cited in patent publication EP2085120A1, “The use of substances for the treatment of central or peripheral insulin receptor impairment and insulin resistance” (Merz Pharma GmbH & Co. KGaA, priority 2008, dated 2009).

Tested on: cultured hippocampal and cortical neurons
Conditions: cultured hippocampal and cortical neurons pretreated with ADDLs or ADDL/glutamate; addition of an NMDA receptor antagonist

## CC12CC3CC(C)(C1)CC(N)(C3)C2 [memantine]
  ADDL and glutamate-induced decreased insulin sensitivity: reversible
